The text below walks through data of patent US5747545A, “Method of preventing NMDA receptor complex-mediated Neuronal damage” (priority 1995, dated 1998).

SMILES strings stand for the structures. “Also recorded” adds a separate entry of the source.

In data set [1] the test system is NMDA receptor (rat cortical neurons in culture). As to the kind of experiment: Digital fura-2 imaging of NMDA-evoked intracellular [Ca2+] in cultured cortical neurons. It is filed as cell-based, rat (Sprague-Dawley). The conditions noted are these: 50 μM NMDA; Examples 1-2; NTG 100 μM in Example 2. The method, then:
The concentration of intracellular free Ca^2+ ([Ca^2+ ]i) is measured in neonatal cortical neurons by digital imaging microscopy with the Ca^2+ sensitive fluorescent dye fura 2, as follows. The same cortical neuronal cultures as described above are used. During Ca^2+ measurements, unless otherwise stated the fluid bathing the neurons consists of Hanks' balanced salts: 137.6 mM NaCl, 1 mM NaHCO3, 0.34 mM Na2 HPO4, 0.44 mM KH2 PO4, 5.36 mM KCl, 1.25 mM CaCl2, 0.5 mM MgSO4, 0.5 mM MgCl2, 5 mM Hepes NaOH, 22.2 mM glucose, and sometimes with phenol red indicator (0.001% v/v); pH 7.2. NMDA (in the absence Mg^++), glutamate, and other substances are usually applied to the neurons by pressure ejection after dilution in this bath solution. Neuronal [Ca^2+ ]i is analyzed with fura 2-acetoxy-methyl ester (AM) as described [Grynkiewicz, et al., J. Biol. Chem. 260:3440 (1985); Williams et al., Nature 318:558 (1985); Connor et al., J. Neurosci. 7:1384 (1987); Connor et al., Science 240:649 (1988); Cohan et al., J. Neurosci. 7:3588 (1987); Mattson, et al., ibid, 9:3728 (1989)]. After adding Eagle's minimum essential medium containing 10 μM fura 2-AM to the neurons, the cultures are incubated at 37° C. in a 5% CO2 /95% air humidified chamber and then rinsed. The dye is loaded, trapped, and deesterified within 1 hour, as determined by stable fluorescence ratios and the effect of the Ca^2+ ionophore ionomycin on [Ca^2+ ]i is measured. During Ca^2+ imaging, the cells are incubated in a solution of Hepes-buffered saline with Hanks' balanced salts. The [Ca^2+ ]i is calculated from ratio images that are obtained by measuring the fluorescence at 500 nm that is excited by 350 and 380 nm light with a DAGE MTI 66 SIT or QUANTEX QX-100 Intensified CCD camera mounted on a Zeiss Axiovert 35 microscope. Exposure time for each picture is 500 ms. Analysis is performed with a Quantex (Sunnyvale, Calif.) QX7-210 image-processing system. Since cells are exposed to ultraviolet light only during data collection (generally less than a total of 20 s per cell), bleaching of fura 2 is minimal.
In this experiment, the effect of NTG on intracellular [Ca^++ ] increases induced by NMDA were followed using digital [Ca^++ ] imaging techniques, based on the dye fura-2.
Specifically, the model for NMDA-mediated neurotoxicity involves exposure of cultured rat cortical neurons to NMDA in the presence of glycine (a co-agonist).
Cortical cultures were derived from embryonic (fetal day 15 or 16) Sprague-Dawley rats as described previously (Dichter, 1978; Rosenberg and Aizenman, 1989). […]

The subject of data set [2] is NMDA receptor (cortical neurons). The data set can be described thus: Patch-clamp recording of NMDA-evoked current in cortical neurons. Type of data set: cell-based, rat (Sprague-Dawley). The note with it: for Effect on NMDA-evoked current: 50 μM NMDA + 1 μM glycine, -60 mV, DTT 2 mM, NTG 500 μM, DTNB 500 μM, 2 min exposure, washout, FIG. 4. In general terms: The patch-clamp technique gives a direct electrical read-out from membranes.

The test system of data set [3] is cortical neurons (NMDA receptor-mediated neurotoxicity). The data set can be described thus: Neurotoxicity assay: survival of cortical neurons after DTT and NMDA exposure. It is filed as cell-based, rat. The conditions noted are these: chemical reduction of redox modulatory site. The method, then:
To test compounds for their ability to prevent neurotoxicity, neuronal cell death may be assayed as follows. […] The candidate compound is tested by addition (e.g., in a series of concentrations ranging from 0.1 nM-10 mM) after DTT treatment but before NMDA treatment. The candidate compound can be added for minutes, hours, or even days prior to its washout period. […] Neuronal cultures are scored for cell survival after this overnight incubation because NMDA toxicity is often delayed by several hours following NMDA exposure.
Using the neurotoxicity assay described above, the compounds sodium nitroprusside and nitroglycerin were tested individually for their ability to increase survival of neonatal cortical neurons.
As shown in FIG. 6A-6D, surviving neurons are expressed as the percentage of viable neurons in the control culture dishes in the same experiment. The concentrations of drugs were as follows: APV (2 mM), NTG (100 μM), SNP (400 μM), DTT (0.5-2 mM), and reduced Hb (500 μM). […] Values are mean ±SEM for experiments run in triplicate on sibling cultures on separate days (total of 32 experiments). Astericks indicate significant difference compared with the value for DTT-NMDA exposure, P<0.05 (ANOVA followed by Scheffe multiple comparison of means.

Data set [4] deals with NMDA receptor (rat cortical neurons in culture). As to the kind of experiment: Digital fura-2 imaging of NMDA-evoked intracellular [Ca2+] in cultured cortical neurons. Type of data set: cell-based, rat (Sprague-Dawley). The conditions noted are these: for Effect on NMDA-evoked [Ca2+]i response (SNOC experiment): after 2 mM DTT, 3 min exposure to 100 μM SNOC, NMDA 50 μM, FIG. 5A, P<0.01.

The conditions of data set [5]: adult treated for Parkinson's symptoms for several weeks; reversible after discontinuation; cited from earlier work.
The test system of data set [6] is cortical neurons (neuronal survival). The conditions noted are these: SNOC or purified peroxynitrite incubation; listed as OONO^-. Here is the method:
S-nitrosocysteine was added as a source of NO.cndot. to cerebrocortical cultures (Lei et al., (1992) Neuron 8:1087-1099; Stamler et al., (1992) Science 258:1898-1902).
Peroxynitrite leads to lipid peroxidation and massive oxidation of sulfhydryls (Radi et al., (1991) J. Biol. Chem. 266:4244-4250; Radi et al., (1991) Arch. Biochem. Biophys. 288:481-487).
Values are expressed as mean+s.e.m. (n=9). Statistical comparisons were performed by an analysis of variance followed by a Scheffe multiple comparison of means (*, P<0.01 compared to control; **, P<0.05 compared to control; .dagger., P<0.01 compared to nitroso compound+SOD/catalase).
Specifically, the data in FIG. 7 were generated using mixed neuronal and glial cortical cultures from neonatal rats, as described previously (Lei, et al., (1992) Neuron 8:1087-1099). In at least three separate experiments, triplicate cultures were incubated overnight in Earle's buffered saline solution (EBSS) containing various concentrations of SNOC, peroxynitrite, SOD, catalase, or glutamate. […] The culture fluid was assayed for […] (LDH) as an indicator of neuronal survival by measuring the absorbance at 450 nm (Koh et al., (1987) J. Neurosci. Meth. 20:83-90). The cultures were also scored for neuronal viability by cell counting, generally with 0.2% trypan blue, after fixation in 2.5% glutaraldehyde, as described above. Neurons from cultures grown on 15 mm diameter cover slips were counted in a masked fashion in ~30 microscopic fields at 200 x.

Turning to `O[C@H](CS)[C@H](O)CS` (racemic) [DTT, dithiothreitol], the “Effect on NMDA-evoked [Ca2+]i response” value in data set [1] was “reversed the effect of NTG”. Further, in data set [2], the “Effect on NMDA-evoked current” value was “enhanced the NMDA-evoked current; also recorded: increased NMDA-activated currents”. The “Effect on neurotoxic effect of NMDA” value in data set [3] is “increases the neurotoxic effect of NMDA”. Also, the “Effect on NMDA-evoked [Ca2+]i response (SNOC experiment)” value in data set [4] is reported as “the NMDA-evoked response was increased; also recorded: fully reversed the inhibitory effect of S-nitrosocysteine”. For the molecule `O[C@H](CS)[C@H](O)CS` (relative stereo) [dithiothreitol (DTT)], the “Effect on NMDA-evoked [Ca2+]i response” value in data set [1] is “further enhanced”.

In the case of `O=C(O)c1cc(SSc2ccc([N+](=O)[O-])c(C(=O)O)c2)ccc1[N+](=O)[O-]` [DTNB, 5,5dithio-bis-2-nitrobenzoic acid], in data set [1], the “Effect on NMDA-evoked [Ca2+]i response” value is “decreased the NMDA evoked [Ca^2+ ]i responses”. In addition, the “Effect on NMDA-evoked current” value in data set [2] is given as “decreased the responses slightly”. Also, the “Effect on amplitude of NMDA evoked current following alkylation with NEM” value in data set [2] (after 1-5 mM NEM) is “neither NTG nor DTNB significantly affected the amplitude of NMDA evoked current”.

For `CCN1C(=O)C=CC1=O` [NEM, N-ethylmalemide], the “Effect of NEM pretreatment on the SNOC effect on NMDA-evoked [Ca2+]i” value in data set [4] (NEM pretreatment, FIG. 5B) was “blocks the effect of SNOC”. `CN[C@H](CC(=O)O)C(=O)O` [NMDA, N-methyl-D-aspartate]: in data set [4] (NMDA 50 μM after 2 mM DTT, FIG. 5), the “Maximum NMDA response obtained after exposure to DTT, [Ca2+]i” value is ~ 750 nM [Ca2+]i. For `NC(CSN=O)C(=O)O` (stereo not shown) [S-nitrosocysteine (SNOC)], the “Effect on NMDA-evoked [Ca2+]i response (SNOC experiment)” value in data set [4] is “inhibited”. `Cl.NC12CC3CC(CC(C3)C1)C2` [amantadine, 1-adamantanamine hydrochloride]: the “Visual loss (case report)” value in data set [5] is “one case report of visual loss in an adult patient”. Regarding `O=NOO` [peroxynitrite], the “Killing of cortical neurons” value in data set [6] was “kills neurons in a dose-dependent fashion”.
